Experimental data: patent US8192717B2, “Composition for diagnosing amyloid-related diseases” (Nagasaki University, priority 2004, dated 2012)

Tests used:
[1] = Radioactivity distribution in mouse body after intravenous administration of radioiodine labeled forms; conditions: normal mice, intravenous, [125I]-labelled form
Method: Thereafter, 100 μl (0.5 to 1 μCi) of each labeled form was intravenously administered to each group consisting of three to five 5-week-old ddY male mice (25 to 30 g). 2, 10, 30, and 60 minutes after the intravenous administration, such mice were decapitated, and blood was collected. Thereafter, organs were excised, and the weight and radioactivity thereof were then measured.

Aβ(1-42) aggregates [2] = target: T1, Aβ(1-42) aggregates (Homo sapiens, UniProt P05067); assay: Inhibition experiment using [125I] compound 11 as radioactive ligand, Aβ(1-42) aggregates; format: binding; conditions: radioligand [125I] compound 11; Cheng-Prusoff; read-out: Inhibition constant (Ki, nM) Aβ(1-42)
T1 construct: the amyloid β protein (Human, 1-42) [TFA form]; purchased Peptide Institute, Inc
Method: (§1) Aβ aggregates was dissolved in a buffer (pH 7.4) that contained 10 mM sodium phosphate and 1 mM EDTA, resulting in a concentration of 0.5 mg/ml. Thereafter, the obtained solution was incubated at 37° C. for 36 to 42 hours. A binding experiment was carried out using 12×75 mm borosilicate glass tubes. […] The obtained mixture was left at room temperature for 3 hours. Non-specific bond was calculated using nonradioactive compound 11 (1 μM). […] The radioactivity of a substance remaining in the filter used in filtration was measured with a γ counter. With regard to [^125I] compound 11, the Kd value thereof was calculated by the Scatchard analysis. In addition, using [^125I] compound 11 as a radioactive ligand, an inhibition experiment was carried out by the following method using the Aβ(1-40) aggregates and the Aβ(1-42) aggregates. […] The obtained mixture was left at room temperature for 3 hours. Non-specific bond was calculated using nonradioactive compound 11 (1 μM). The 50% inhibitory concentration was calculated using GraphPad Prism (GraphPad Software), and the inhibition constant (Ki value) was calculated according to the formula of Cheng-Prusoff, Ki=IC50/(1+[L]/Kd). In this formula, [L] represents the concentration of [^125I] compound 11, and Kd represents the dissociation constant of [^125I] compound 11 to the Aβ(1-40) aggregates and the Aβ(1-42) aggregates.

[3] = test system: senile plaque amyloid, cerebrovascular amyloid and neurofibrillary degeneration in brain tissues of patient with Alzheimer's disease; assay: Binding experiment using brain tissues of patient with Alzheimer's disease (fluorescence microscopy of sections); parameters: species or system human; conditions: 100 nM, room temperature, 10 minutes; temporal lobe sections
Method: Tissues at the temporal lobe site of the brain of a patient with Alzheimer's disease were fixed with formalin, and were then embedded in paraffin. A section with a thickness of 5 μm was prepared from the paraffin block, and the paraffin was then removed by an ordinary treatment with xylene and ethanol (Lippa, C. F., Nee, L. E., Mori, H & George-Hyslop, P. (1998) The Lancet 352:1117-1118). As the final stage, neutralization was carried out with a phosphate buffer. Thereafter, compounds 10, 11, 19, and 20 were reacted in a concentration of 100 nM at room temperature for 10 minutes. Thereafter, the reaction product was washed with a phosphate buffer three times, and then with 50% ethanol three time, so as to terminate the reaction. Thereafter, the resultant was dehydrated by treatments with alcohol and xylene, followed by embedding with Entellan(R) new. The bond of the above compound was confirmed by image observation with a CCD camera (M-3204C) included with a fluorescence microscope (Olympus BX50).

Aβ(1-40) aggregates [4] = target: T2, Aβ(1-40) aggregates (Homo sapiens, UniProt P05067); assay: In vitro binding of [125I]-labelled compounds to Aβ aggregates (filtration, radioactivity on filter); conditions: [125I]-labelled compound; radioactivity remaining on filter in presence vs absence of Aβ aggregates
T2 construct: The amyloid β protein (Human, 1-40) [HCl form]; purchased Peptide Institute, Inc
Method: as §1

Aβ(1-40) aggregates [5] = target: T2, Aβ(1-40) aggregates; assay: Inhibition experiment using [125I] compound 11 as radioactive ligand, Aβ(1-40) aggregates; format: binding; conditions: radioligand [125I] compound 11; Cheng-Prusoff; read-out: Inhibition constant (Ki, nM) Aβ(1-40)
Method: as §1

Aβ(1-42) aggregates [6] = target: T1, Aβ(1-42) aggregates; assay: Saturation experiment of [125I] compound 11 with Scatchard analysis, Aβ(1-42) aggregates; format: binding; conditions: read-out: dissociation equilibrium constant (Kd value)
Method: as §1

Aβ(1-40) aggregates [7] = target: T2, Aβ(1-40) aggregates; assay: Saturation experiment of [125I] compound 11 with Scatchard analysis, Aβ(1-40) aggregates; format: binding; conditions: read-out: dissociation equilibrium constant (Kd value)
Method: as §1

T2 sequence (P05067 672-711 limits assumed): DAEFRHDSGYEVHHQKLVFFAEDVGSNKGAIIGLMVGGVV
T1 sequence (P05067 672-713 limits assumed): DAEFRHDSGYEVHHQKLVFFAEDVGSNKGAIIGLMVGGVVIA

Q: Which results are given for `COc1ccc(-c2cc(=O)c3cc(I)ccc3o2)cc1` [compound 19, 6-iodo-4′-methoxyflavone]?
A: rate of disappearance from the brain (rank among flavone derivatives) [1]: fastest; Ki (Aβ(1-42) aggregates [2]): 38.3 ± 8.1 nM; recognition of and binding to amyloid plaque, senile plaque having a neurodegenerative projection, cerebrovascular amyloid and neurofibrillary degeneration [3]: recognize amyloid plaque, senile plaque having a neurodegenerative projection, cerebrovascular amyloid and neurofibrillary degeneration, and bind thereto; bindability to the Aβ aggregates (Aβ(1-40) aggregates [4]): high bindability; Ki (Aβ(1-40) aggregates [5]): 29 ± 3.2 nM

Q: With `CN(C)c1ccc(-c2cc(=O)c3cc(I)ccc3o2)cc1` [compound 11, 6-iodo-4′-dimethylaminoflavone] as the compound, how does the Ki (Aβ(1-42) aggregates [2]) read?
A: The Ki was 15.6 ± 2.4 nM.

Q: And the “bindability to senile plaque having a neurodegenerative projection and to neurofibrillary degeneration” value [3]?
A: Its value is “has bindability”.

Q: What about the “binding to cerebrovascular amyloid” value [3] of the same compound?
A: Its value is “specifically binds to cerebrovascular amyloid”.

Q: And the “binding to senile plaque” value [3]?
A: The value was “specifically binds to senile plaque”.

Q: And the “bindability to the Aβ aggregates” value (Aβ(1-40) aggregates [4])?
A: The value was “high bindability”.

Q: And the Kd (Aβ(1-42) aggregates [6])?
A: Its Kd is 17.6 ± 5.7 nM.

Q: And the Ki (Aβ(1-40) aggregates [5])?
A: Its Ki is 13.2 ± 0.2 nM.

Q: What about the Kd (Aβ(1-40) aggregates [7]) of the same compound?
A: Its Kd is 12.3 ± 2.3 nM.

Q: With `CNc1ccc(-c2cc(=O)c3cc(I)ccc3o2)cc1` [compound 10, 6-iodo-4′-methylaminoflavone] as the compound, how does the “rate of disappearance from the brain (rank among flavone derivatives)” value [1] read?
A: Its value is “almost the same as that of [^125I] compound 11”.

Q: What about the Ki (Aβ(1-42) aggregates [2]) of the same compound?
A: The Ki was 30 ± 3.4 nM.

Q: And the “recognition of and binding to amyloid plaque, senile plaque having a neurodegenerative projection, cerebrovascular amyloid and neurofibrillary degeneration” value [3]?
A: The value was “recognize amyloid plaque, senile plaque having a neurodegenerative projection, cerebrovascular amyloid and neurofibrillary degeneration, and bind thereto”.

Q: What about the “bindability to the Aβ aggregates” value (Aβ(1-40) aggregates [4]) of the same compound?
A: Its value is “high bindability”.

Q: What about the Ki (Aβ(1-40) aggregates [5]) of the same compound?
A: The Ki was 22.6 ± 3.4 nM.
